Measurements as given in publication PMC8875392, “Design and Characterization of Myristoylated and Non-Myristoylated Peptides Effective against Candida spp. Clinical Isolates” (International Journal of Molecular Sciences, 2022).
Values after ≈ are worked out from the molar mass of the structure shown. Where two headings read alike, the source gives them in different places. Where a SMILES comes first, the peptide text is derived from it. The star is where a group is joined. Myristoyl = CCCCCCCCCCCCCC(=O)*

Tests used:
[1] = system: C. glabrata clinical isolates; assay type: cell-based, Candida glabrata; settings: 16 h
Protocol: (§1) The antifungal activity of AMPs was determined against 50 clinical isolates, 10 for each of the following Candida species: C. albicans, C. tropicalis, C. glabrata, C. parapsilosis, and C. auris. The latter were derived from patients with positive blood cultures in four hospitals in India, with known resistance profiles to fluconazole, voriconazole, and echinocandins. Yeast cells were grown in Brain Heart Infusion (BHI) medium (Sigma-Aldrich, Gillingham, UK) for 16 h at 37 °C in a 150-rpm orbital shaker. Cells were then sub-inoculated in a fresh BHI medium and grown to an optical density (OD) of 0.3. The turbidity of the inoculum was adjusted to 0.5 McFarland and diluted 1:500 in RPMI 1640 broth, corresponding to around […].
(§2) Minimal inhibitory concentrations (MICs) were determined by Broth microdilution susceptibility tests, according to The Clinical and Laboratory Standards Institute (CLSI) international guidelines. A fungal suspension of 0.5 MacFarland was diluted 1:500 in RPMI 1640 broth and incubated in 96 multi-well plates containing AMPs at different concentrations ranging from 0.125 to 256 μg/mL. In this range of concentration, lipopeptides were completely soluble. […] The MIC90 represents the value at which ≥90% of the strains within a test population were inhibited.

[2] = system: C. albicans clinical isolates; assay type: cell-based, Candida albicans; settings: 16 h
Protocol: as §1, §2

[3] = system: C. tropicalis clinical isolates; assay type: cell-based, Candida tropicalis; settings: for MIC90: clinical isolates, 16 h; for MIC: CLSI broth microdilution, RPMI 1640
Protocol: as §1, §2

[4] = system: C. parapsilosis clinical isolates; assay type: cell-based, Candida parapsilosis
Protocol: as §1, §2

[5] = system: C. auris clinical isolates; assay type: cell-based, Candida auris; settings: for MIC: CLSI broth microdilution, RPMI 1640
Protocol: as §1, §2

[6] = Membrane partition, Trp-1 fluorescence upon titration with LUVs; assay type: binding; settings: for KX (mole fraction partition constant): peptide 1.0 μM, 20 mM phosphate pH 7.4, 150 mM NaCl, 0.8 mM EDTA, 298 K, Trp fluorescence, quadruplicate; for ΔG: ΔG = −RT lnKx; for Selectivity Ratio: ratio between partition constants in anionic (POPC/POPG) and zwitterionic (POPC) membranes
Protocol: To quantify the interaction of different lipidated and non-lipidated peptides with membrane mimetic systems, we measured the intrinsic fluorescence of Trp-1 upon partition with LUVs (large unilamellar vesicles) of different compositions. Briefly, the mixtures of POPC/POPG (70%/30% w/w) LUVs were used to mimic anionic membranes and POPC only to mimic zwitterionic membranes. […] The mole fraction partition constants Kx were calculated from the partition isotherms as previously described. Figure 2 reports the partition isotherms for the titration of myristoylated and non-myristoylated peptides with POPC and POPC/POPG vesicles.
The values of Kx for all peptides are reported in Table 2 together with ΔG values, calculated using the expression ΔG = −RT lnKx, and the selectivity ratio defined as the ratio between partition constants determined in anionic and zwitterionic membranes. Higher values of the selectivity ratio represent a preference of the peptide for anionic vesicles, while lower values indicate a preference for the zwitterionic one.
The lipids POPC (1-palmitoyl-2-oleoyl-sn-glycero-3-phosphocholine) and POPG (1-palmitoyl-2-oleoyl-sn-glycero-3-phosphoglycerol) were purchased from Avanti Polar Lipids (Alabaster, AL, USA) and used without further purification. LUVs (Large Unilamellar Vesicles) were prepared as previously reported. Briefly, appropriate amounts of lipids were dissolved in chloroform/methanol 9:1. The solvent was then removed by rotary evaporation and samples were placed overnight under a high vacuum. The lipid film was then hydrated by adding 1 mL of buffer (20 mM phosphate buffer at pH 7.4 with 150 mM NaCl and 0.8 mM EDTA) and then subjected to 5 freeze–thaw cycles and vortexed. The multilamellar vesicles (MLVS) were extruded through a polycarbonate membrane with pores of 100 nm by an Avanti polar mini extruder, and the obtained LUVs were used within 48 h of preparation. LUVs were composed of 100% POPC and a 70%/30% (w/w) combination of POPC/POPG. The final concentration of the lipid was 10 mM.
All the steady-state fluorescence measurements were carried out using a Perkin Elmer LS55 fluorescence spectrophotometer. All the experiments were conducted at 298 K in a thermostatic cell holder and in 20 mM phosphate buffer at pH 7.4 containing 0.8 mM EDTA and 150 mM NaCl unless otherwise specified.
Since all peptides contain tryptophan, fluorescence spectroscopy is an appropriate tool for studying these molecules. Peptide partitioning between buffer and lipid vesicles was monitored by measuring the increase in tryptophan fluorescence upon the addition of LUVs. Trp fluorescence spectra were recorded with λexc = 295 nm and scanning the emission between 305 and 400 nm. Measurements were carried out with a cross-oriented configuration of polarizers (polem = 0° and polexc = 90°). Briefly, a 1.0 μM solution of the peptide was titrated with LUVs of different compositions (POPC 100% and 70%/30% POPC/POPG) as previously described. The background effects of vesicles and buffer were subtracted from each spectrum. All the fluorescence emissions were corrected for dilution. Mole fraction partition coefficients Kx were calculated from the fraction of the partitioned peptide fp as previously described. The fraction of the partitioned peptide fp is given by the following equation [53] (6) fp=Kx[L]/[W]+Kx[L] where Kx is the mole fraction partition constant, and [L] and [W] are the molar concentrations of lipids and water, respectively.

[7] = isolate Candida parapsilosis 8, CLSI broth microdilution, RPMI 1640
[8] = isolate Candida parapsilosis 9, CLSI broth microdilution, RPMI 1640
[9] = isolate Candida parapsilosis 10, CLSI broth microdilution, RPMI 1640

Row | SMILES | MIC90 [1] [µg/mL] | MIC90 [2] [µg/mL] | MIC90 [3] [µg/mL] | MIC ([3]; isolate Candida tropicalis 1) [µg/mL] | MIC ([3]; isolate Candida tropicalis 2) [µg/mL] | MIC ([3]; isolate Candida tropicalis 3) [µg/mL] | MIC ([3]; isolate Candida tropicalis 4) [µg/mL] | MIC ([3]; isolate Candida tropicalis 5) [µg/mL] | MIC ([3]; isolate Candida tropicalis 6) [µg/mL] | MIC ([3]; isolate Candida tropicalis 7) [µg/mL] | MIC ([3]; isolate Candida tropicalis 8) [µg/mL] | MIC ([3]; isolate Candida tropicalis 9) [µg/mL] | MIC ([3]; isolate Candida tropicalis 10) [µg/mL] | MIC ([4]; clinical isolates, 16 h) [µg/mL] | MIC90 ([4]; clinical isolates, 16 h) [µg/mL] | MIC [4, 7] [µg/mL] | MIC [4, 8] [µg/mL] | MIC [4, 9] [µg/mL] | MIC ([5]; isolate Candida Auris 1) [µg/mL] | MIC ([5]; isolate Candida Auris 2) [µg/mL] | also measured
1 | CCCCCCCCCCCCCC(=O)N[C@@H](Cc1c[nH]c2ccccc12)C(=O)N[C@@H](Cc1ccccc1)C(=O)NCC(=O)N[C@@H](CCCCN)C(=O)N[C@@H](CC(C)C)C(=O)N[C@@H](Cc1ccc(O)cc1)C(=O)N[C@@H](CCCNC(=N)N)C(=O)NCC(=O)N[C@H](C(=O)N[C@H](C(=O)N[C@@H](CCCCN)C(=O)O)[C@@H](C)O)[C@@H](C)CC [Myr-A] (Myristoyl-WFGKLYRGITK-OH; C-terminus assumed) | 16 (≈ 10.1 µM) | 16 (≈ 10.1 µM) | 16 (≈ 10.1 µM) | 16 (≈ 10.1 µM) | 16 (≈ 10.1 µM) | 16 (≈ 10.1 µM) | 16 (≈ 10.1 µM) | 16 (≈ 10.1 µM) | 16 (≈ 10.1 µM) | 16 (≈ 10.1 µM) | 16 (≈ 10.1 µM) | 16 (≈ 10.1 µM) | 16 (≈ 10.1 µM) | 16 (≈ 10.1 µM) | 16 (≈ 10.1 µM) | 16 (≈ 10.1 µM) | 16 (≈ 10.1 µM) | 16 (≈ 10.1 µM) | > 256 | > 256 | MIC [1]: 16 µg/mL (≈ 10.1 µM); MIC (Range) [2]: 8 to 16 µg/mL; MIC90 ([5]; clinical isolates, 16 h): >256 µg/mL; MIC ([5]; isolate Candida Auris 3): > 256 µg/mL; MIC ([5]; isolate Candida Auris 4): > 256 µg/mL; MIC ([5]; isolate Candida Auris 5): > 256 µg/mL; MIC ([5]; isolate Candida Auris 6): > 256 µg/mL; MIC ([5]; isolate Candida Auris 7): > 256 µg/mL; MIC ([5]; isolate Candida Auris 8): > 256 µg/mL; MIC ([5]; isolate Candida Auris 9): > 256 µg/mL; MIC ([5]; isolate Candida Auris 10): > 256 µg/mL; KX (mole fraction partition constant) ([6]; POPC LUVs): (1.03 ± 0.04) × 10^5; ΔG ([6]; POPC LUVs): -6.831 kcal/mol; KX (mole fraction partition constant) ([6]; POPC/POPG 70%/30% LUVs): (4.3 ± 0.8) × 10^5; ΔG ([6]; POPC/POPG LUVs): -7.684 kcal/mol; Selectivity Ratio [6]: 4.17
2 | CCCCCCCCCCCCCC(=O)N[C@@H](Cc1c[nH]c2ccccc12)C(=O)N[C@@H](CCCNC(=N)N)C(=O)NCC(=O)N[C@H](C(=O)N[C@H](C(=O)N[C@@H](CCCCN)C(=O)N[C@H](C(=O)N[C@H](C(=O)N[C@@H](CCCCN)C(=O)N[C@@H](CCCCN)C(=O)N[C@H](C(=O)O)C(C)C)C(C)C)C(C)C)[C@@H](C)O)[C@@H](C)CC [Myr-B] (Myristoyl-WRGITKVVKKV-OH; C-terminus assumed) | 32 (≈ 21 µM) | 16 (≈ 10.5 µM) | 8 (≈ 5.25 µM) | 8 (≈ 5.25 µM) | 8 (≈ 5.25 µM) | 8 (≈ 5.25 µM) | 8 (≈ 5.25 µM) | 8 (≈ 5.25 µM) | 8 (≈ 5.25 µM) | 8 (≈ 5.25 µM) | 8 (≈ 5.25 µM) | 8 (≈ 5.25 µM) | 8 (≈ 5.25 µM) | 32 (≈ 21 µM) | 32 (≈ 21 µM) | 32 (≈ 21 µM) | 32 (≈ 21 µM) | 32 (≈ 21 µM) | 8 (≈ 5.25 µM) | 8 (≈ 5.25 µM) | MIC (Range) [1]: 16 to 32 µg/mL; MIC [2]: 16 µg/mL (≈ 10.5 µM); MIC90 ([5]; clinical isolates, 16 h): 20 µM; MIC (Range) ([5]; clinical isolates, 16 h): 16 to 32 µg/mL; MIC ([5]; isolate Candida Auris 3): 16 µg/mL (≈ 10.5 µM); MIC ([5]; isolate Candida Auris 4): 32 µg/mL (≈ 21 µM); MIC ([5]; isolate Candida Auris 5): 32 µg/mL (≈ 21 µM); MIC ([5]; isolate Candida Auris 6): 16 µg/mL (≈ 10.5 µM); MIC ([5]; isolate Candida Auris 7): 16 µg/mL (≈ 10.5 µM); MIC ([5]; isolate Candida Auris 8): 16 µg/mL (≈ 10.5 µM); MIC ([5]; isolate Candida Auris 9): 32 µg/mL (≈ 21 µM); MIC ([5]; isolate Candida Auris 10): 32 µg/mL (≈ 21 µM); KX (mole fraction partition constant) ([6]; POPC LUVs): (4.7 ± 0.6) × 10^5; ΔG ([6]; POPC LUVs): -7.737 kcal/mol; KX (mole fraction partition constant) ([6]; POPC/POPG 70%/30% LUVs): (1.7 ± 0.2) × 10^6; ΔG ([6]; POPC/POPG LUVs): -8.499 kcal/mol; Selectivity Ratio [6]: 3.62
3 | CCCCCCCCCCCCCC(=O)N[C@@H](Cc1c[nH]c2ccccc12)C(=O)N[C@H](C(=O)N[C@H](C(=O)N[C@@H](CCCCN)C(=O)N[C@@H](CCCCN)C(=O)N[C@H](C(=O)N[C@@H](CCCCN)C(=O)NCC(=O)N[C@@H](CC(C)C)C(=O)N[C@@H](CC(C)C)C(=O)N[C@@H](CCCCN)C(=O)O)C(C)C)C(C)C)C(C)C [Myr-C] (Myristoyl-WVVKKVKGLLK-OH; C-terminus assumed) | 32 (≈ 21.2 µM) | 32 (≈ 21.2 µM) | 16 (≈ 10.6 µM) | 16 (≈ 10.6 µM) | 16 (≈ 10.6 µM) | 16 (≈ 10.6 µM) | 16 (≈ 10.6 µM) | 16 (≈ 10.6 µM) | 16 (≈ 10.6 µM) | 16 (≈ 10.6 µM) | 16 (≈ 10.6 µM) | 16 (≈ 10.6 µM) | 16 (≈ 10.6 µM) | 32 (≈ 21.2 µM) | 32 (≈ 21.2 µM) | 32 (≈ 21.2 µM) | 32 (≈ 21.2 µM) | 32 (≈ 21.2 µM) | 16 (≈ 10.6 µM) | 16 (≈ 10.6 µM) | MIC [1]: 32 µg/mL (≈ 21.2 µM); MIC [2]: 32 µg/mL (≈ 21.2 µM); MIC ([5]; isolate Candida Auris 3): 32 µg/mL (≈ 21.2 µM); MIC ([5]; isolate Candida Auris 4): 32 µg/mL (≈ 21.2 µM); MIC ([5]; isolate Candida Auris 5): 64 µg/mL (≈ 42.4 µM); MIC ([5]; isolate Candida Auris 6): 32 µg/mL (≈ 21.2 µM); MIC ([5]; isolate Candida Auris 7): 32 µg/mL (≈ 21.2 µM); MIC ([5]; isolate Candida Auris 8): 32 µg/mL (≈ 21.2 µM); MIC ([5]; isolate Candida Auris 9): 16 µg/mL (≈ 10.6 µM); MIC ([5]; isolate Candida Auris 10): 32 µg/mL (≈ 21.2 µM); KX (mole fraction partition constant) ([6]; POPC LUVs): (4.9 ± 0.3) × 10^5; ΔG ([6]; POPC LUVs): -7.753 kcal/mol; KX (mole fraction partition constant) ([6]; POPC/POPG 70%/30% LUVs): (1.2 ± 0.2) × 10^6; ΔG ([6]; POPC/POPG LUVs): -8.293 kcal/mol; Selectivity Ratio [6]: 2.45
